# Assay results as given in paper PMC5090035, “A Class 1 Histone Deacetylase with Potential as an Antifungal Target” (mBio, 2016).
# What was measured:
# [1] = molecular target: T1, RpdA (TAP-tagged wild-type RpdA) (Aspergillus nidulans, UniProt G5EB64); assay: HDAC assay, release of [3H]acetate from prelabeled histones; type: biochemical; settings: read-out: % inhibition at 50 nM
# T1 construct: gene ANIA_04493; full-length, C12 motif present; TAP-tagged, expressed under xylPp in A. nidulans, IgG Sepharose, eluted by TEV cleavage (CBP part kept)
# [2] = molecular target: T1, RpdA (TAP-tagged wild-type RpdA); assay: as above; type: biochemical; settings: [3H]acetate-prelabeled chicken reticulocyte histones as substrate; 1 h, 25 C; inhibitor at 50 and 500 nM
# T1 sequence (G5EB64 1-687): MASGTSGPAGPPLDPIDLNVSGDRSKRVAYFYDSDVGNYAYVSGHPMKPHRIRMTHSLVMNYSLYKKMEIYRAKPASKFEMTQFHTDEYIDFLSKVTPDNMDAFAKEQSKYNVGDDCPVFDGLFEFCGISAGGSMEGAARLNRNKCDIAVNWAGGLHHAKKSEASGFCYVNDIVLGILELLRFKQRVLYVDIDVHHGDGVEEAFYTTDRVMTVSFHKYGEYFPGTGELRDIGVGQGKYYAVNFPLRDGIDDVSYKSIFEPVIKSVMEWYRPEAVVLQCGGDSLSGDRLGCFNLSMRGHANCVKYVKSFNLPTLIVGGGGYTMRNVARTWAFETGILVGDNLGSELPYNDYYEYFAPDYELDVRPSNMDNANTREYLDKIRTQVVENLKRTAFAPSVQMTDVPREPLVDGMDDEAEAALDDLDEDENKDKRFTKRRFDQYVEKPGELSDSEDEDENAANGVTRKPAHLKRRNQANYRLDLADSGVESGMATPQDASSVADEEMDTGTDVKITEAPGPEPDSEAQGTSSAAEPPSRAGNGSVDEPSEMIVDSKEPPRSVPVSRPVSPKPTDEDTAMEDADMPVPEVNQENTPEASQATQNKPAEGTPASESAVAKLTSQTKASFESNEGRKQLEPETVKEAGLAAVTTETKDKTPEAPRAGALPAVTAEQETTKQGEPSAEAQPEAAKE
inhibition at 0.05 µM [1] [%],% inhibition at 50 and 500 nM [2],Compound
70,,CC(/C=C/C(=O)NO)=C\[C@@H](C)C(=O)c1ccc(N(C)C)cc1 [trichostatin A]
,SAHA showed only weak inhibition of RpdA,O=C(CCCCCCC(=O)Nc1ccccc1)NO [vorinostat]
